Legend:
[1] = molecular target: human TRPA1 channel (Homo sapiens (Human), UniProt O75762); assay: TRPA1 inhibitor activity, automated patch clamp (SyncroPatch); assay type: cell-based; details: CHO cells inducibly expressing human TRPA1; currents elicited by carvacrol (300 μM), holding potential −60 mV; Table 5
Description: This assay was used to evaluate the disclosed compounds' inhibition activities against the human TRPA1 channel.
CHO cells inducibly expressing human TRPA1 were grown in DMEM containing 10% heat-inactivated FBS, 1 mM Sodium Pyruvate, 2 mM L-Glutamine, Zeocin (100 μg/ml) and Blasticidin (10 μg/ml). Expression was induced by addition of Doxycycline (1 μg/ml) 24 hours before experiments. Cells used for electrophysiology were plated in plastic culture flasks and grown at 37° C. in a 5% CO2-humidified tissue culture incubator per ChanPharm SOP. Stocks were maintained in cryogenic storage.
The cells were bathed in an extracellular solution containing 80 mM NaCl, 60 mM NMDG, 4 mM KCl, 2 mM CaCl2), 6 mM MgCl2, 5 mM Glucose. 10 mM HEPES, 3 mM HEDTA; pH adjusted to 7.4 with NaOH; 305-310 mOsm. All compounds were dissolved in DMSO at 30 mM. The internal solution contained 10 mM CsCl, 110 mM CsF, 10 mM NaCl, 10 mM EGTA, 10 mM HEPES, 4 mM MgATP, 0.25 mM NaGTP, 4 mM BAPTA; pH adjusted to 7.2 with CsOH; 285-290 mOsm. Compound stock solutions were freshly diluted with external solution to concentrations of 3 nM, 10 nM 30 nM, 100 nM, 300 nM, 1 μM, 3 μM, 10 μM, and 30 μM. The highest content of DMSO (0.1%) was present at 30 μM.
All experiments were performed at room temperature. Each cell acted as its own control. In preparation for a current recording session, intracellular solution (see above) was loaded into the intracellular compartments of the automated patch clamp platform SyncroPatch (Nanion) chip and the cell suspension was pipetted into the extracellular compartments. After establishment of a whole-cell configuration, membrane current recordings and compound application were enabled by means of the SyncroPatch. TRPA1 currents were elicited by application of carvacrol (300 μM) at a constant holding potential of −60 mV (see Table A below).
To determine IC50 values, AUC and peak values, obtained in the presence of a given compound concentration, were normalized to control values in absence of compound. Using DataControl384 (Nanion's proprietary software), IC50 values were derived by fitting the normalized data to the Hill equation.

[2] = molecular target: hERG channel (Homo sapiens (Human), UniProt Q12809); assay: hERG activity, automated patch clamp (SyncroPatch); assay type: cell-based; details: CHO-K1 cells stably expressing hERG; tail current at −50 mV; compounds at 50 μM and 100 μM; Table 5
Description: This assay was used to evaluate the disclosed compounds' inhibition activities against the hERG channel.
CHO-K1 cells stably expressing hERG were grown in Ham's F-12 Medium with Glutamine containing 10% heat-inactivated FBS, 1% Penicillin/Streptomycin, Hygromycin (100 μg/ml), and G418 (100 μg/ml). Cells used for electrophysiology were plated in plastic culture flasks and grown at 37° C. in a 5% CO2-humidified incubator per ChanPharm SOP. Stocks were maintained in cryogenic storage.
The cells were bathed in an extracellular solution containing 140 mM NaCl, 4 mM KCl, 2 mM CaCl2), 1 mM MgCl2, 5 mM Glucose, and 10 mM HEPES; pH adjusted to 7.4 with NaOH; 295-305 mOsm. The internal solution contained 10 mM KCl, 110 mM KF, 10 mM NaCl, 10 mM EGTA, 10 mM HEPES; pH adjusted to 7.2 with KOH; 280-285 mOsm. All compounds were dissolved in DMSO at 30 mM. Compound stock solutions were freshly diluted with external solution to concentrations of 50 μM and 100 μM. The highest content of DMSO […].
All experiments were performed at room temperature. Each cell acted as its own control. In preparation for a recording session, intracellular solution (see above) was loaded into the intracellular compartments of the automated patch clamp platform SyncroPatch (Nanion) chip and the cell suspension was pipetted into the extracellular compartments. After establishment of a whole-cell configuration, membrane current recordings, and compound application were enabled by means of the SyncroPatch. hERG currents were elicited by a voltage pulse pattern with fixed amplitudes (depolarization: +20 mV amplitude, 300 ms duration; repolarization: −50 mV, 300 ms duration) repeated at 3 s intervals from a holding potential of −80 mV.
Data acquisition and analysis were performed using DataControl384 (Nanion's proprietary software). To determine the (percentage) inhibition, the last single pulse in the pulse train (i.e., the repolarization step to −50 mV; tail current) at a given compound concentration was used. AUC and peak values, obtained in the presence of compound, were normalized to control values in the absence of compound.

Sequence of human TRPA1 channel (O75762 whole entry): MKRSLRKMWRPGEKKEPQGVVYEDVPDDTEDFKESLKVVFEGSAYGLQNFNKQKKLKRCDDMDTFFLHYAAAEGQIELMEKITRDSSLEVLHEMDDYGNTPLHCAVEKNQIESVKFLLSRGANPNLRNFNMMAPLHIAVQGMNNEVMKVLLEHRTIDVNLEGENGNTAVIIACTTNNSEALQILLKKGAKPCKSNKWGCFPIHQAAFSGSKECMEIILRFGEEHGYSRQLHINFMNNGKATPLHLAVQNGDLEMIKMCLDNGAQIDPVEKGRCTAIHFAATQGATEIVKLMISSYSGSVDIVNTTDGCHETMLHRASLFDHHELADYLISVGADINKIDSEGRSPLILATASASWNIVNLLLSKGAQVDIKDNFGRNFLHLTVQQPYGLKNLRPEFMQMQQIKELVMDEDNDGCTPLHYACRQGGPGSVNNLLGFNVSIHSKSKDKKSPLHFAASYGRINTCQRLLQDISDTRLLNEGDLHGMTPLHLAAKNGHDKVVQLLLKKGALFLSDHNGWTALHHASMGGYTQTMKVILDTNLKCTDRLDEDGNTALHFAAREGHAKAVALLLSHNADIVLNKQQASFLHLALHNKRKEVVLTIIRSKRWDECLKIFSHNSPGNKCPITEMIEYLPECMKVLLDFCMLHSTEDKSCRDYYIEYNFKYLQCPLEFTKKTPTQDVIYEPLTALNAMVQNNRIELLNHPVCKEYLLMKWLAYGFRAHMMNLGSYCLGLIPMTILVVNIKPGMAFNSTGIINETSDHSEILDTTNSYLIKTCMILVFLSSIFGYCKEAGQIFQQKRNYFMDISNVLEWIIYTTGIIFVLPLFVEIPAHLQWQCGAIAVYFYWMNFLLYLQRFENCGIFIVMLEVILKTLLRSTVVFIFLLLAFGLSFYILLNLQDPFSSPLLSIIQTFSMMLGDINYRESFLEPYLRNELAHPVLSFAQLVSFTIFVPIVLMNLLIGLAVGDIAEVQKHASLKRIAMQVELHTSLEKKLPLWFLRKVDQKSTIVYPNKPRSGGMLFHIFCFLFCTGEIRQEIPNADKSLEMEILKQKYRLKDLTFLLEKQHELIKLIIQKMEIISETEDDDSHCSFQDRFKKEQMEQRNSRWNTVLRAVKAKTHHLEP
Sequence of hERG channel (Q12809 whole entry): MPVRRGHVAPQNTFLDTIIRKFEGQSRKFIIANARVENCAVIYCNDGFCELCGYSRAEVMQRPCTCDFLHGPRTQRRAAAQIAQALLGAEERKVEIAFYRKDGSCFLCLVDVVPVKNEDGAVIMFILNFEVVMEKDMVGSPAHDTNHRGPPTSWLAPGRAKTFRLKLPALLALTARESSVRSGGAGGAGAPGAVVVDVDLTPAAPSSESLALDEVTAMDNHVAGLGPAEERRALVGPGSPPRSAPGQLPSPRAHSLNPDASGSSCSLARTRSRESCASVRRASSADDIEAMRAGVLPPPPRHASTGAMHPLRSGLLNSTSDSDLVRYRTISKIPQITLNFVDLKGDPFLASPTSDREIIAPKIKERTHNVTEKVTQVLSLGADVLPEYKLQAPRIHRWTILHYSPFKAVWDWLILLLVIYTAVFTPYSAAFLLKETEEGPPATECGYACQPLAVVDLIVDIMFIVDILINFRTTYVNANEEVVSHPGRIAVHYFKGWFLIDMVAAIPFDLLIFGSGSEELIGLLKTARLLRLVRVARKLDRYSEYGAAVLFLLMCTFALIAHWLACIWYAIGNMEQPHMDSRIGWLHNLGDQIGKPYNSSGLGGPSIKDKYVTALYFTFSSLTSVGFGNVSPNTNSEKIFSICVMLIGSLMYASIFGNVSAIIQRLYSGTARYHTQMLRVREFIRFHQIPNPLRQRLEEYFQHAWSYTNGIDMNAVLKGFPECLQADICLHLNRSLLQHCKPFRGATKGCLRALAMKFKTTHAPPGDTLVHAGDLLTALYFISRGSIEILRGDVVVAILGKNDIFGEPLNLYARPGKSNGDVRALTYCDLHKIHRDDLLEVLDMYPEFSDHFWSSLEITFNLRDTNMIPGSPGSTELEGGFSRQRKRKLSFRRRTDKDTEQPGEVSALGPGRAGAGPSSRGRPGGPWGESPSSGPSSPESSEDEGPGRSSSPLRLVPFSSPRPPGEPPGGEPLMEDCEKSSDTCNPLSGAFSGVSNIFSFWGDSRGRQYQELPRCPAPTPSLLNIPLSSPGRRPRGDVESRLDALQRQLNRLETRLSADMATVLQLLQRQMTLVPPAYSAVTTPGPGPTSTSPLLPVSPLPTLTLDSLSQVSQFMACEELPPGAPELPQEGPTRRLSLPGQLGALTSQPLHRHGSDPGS

O=c1c(Cl)cnc(CO)n1Cc1nc(C[C@H](O)c2ccc(Cl)cc2)no1 [Compound 73, (S)-5-chloro-3-((3-(2-(4-chlorophenyl)-2-hydroxyethyl)-1,2,4-oxadiazol-5-yl)methyl)-2-(hydroxymethyl)pyrimidin-4(3H)-one]
IC50 [1]: < 0.1 µM | IC50 [2]: > 50 µM

Source: patent US20250270198A1, “PYRIDONE COMPOUNDS AS TRPA1 INHIBITORS” (D. E. Shaw Research, LLC, priority 2022, published 2025)
